1 substance from patent US9789153B2, “Composition for preventing cancer and treating cancer and intensifying the effects of other anticancer drugs” (priority 2014, dated 2017) can be followed below.

The assay has as its system Cancer cells. Put plainly: MTT assay-A positive control group. Type of assay: cell-based. Particulars: Triton X100 1%, positive control C2. Here is the method:
MTT (3-(4,5 dimethylthiazole-2-yl)-2,5-diphenyl tetrazolium bromide) is a proven cell viability indicator and this yellow colored tetrazolium salt gets reduced to purple colored formazan crystals by mitochondrial reductase enzyme seen only in metabolically active cells. It measures the cell proliferation rate and the reduction in cell viability when metabolic events lead to apoptosis or necrosis. Triplicate samples were analyzed and cell viability was calculated in percentage with respect to negative control group as follows Cell viability (%)=(Nt/Nc)×100 Nt is the absorbance of cells treated with sample and Nc is the absorbance of untreated cells (negative control group-Cell culture medium alone). The cell survival rate of negative control group is 100%. The results of MTT assays are shown in Figures, Wherein, the horizontal axis represents concentration of test sample and the vertical axis represents the cell survival rate. […]
Cancer cells were incubated for 2 days. […] Optical density of the solution was measured at a wavelength of 570 nm using a Beckmann Coulter Elisa plate reader (BioTek Power Wave XS). […]

On to Triton X100, for which the cells killed result is given as “more than 90%”.
